Laboratory results reported in US7067633B2, “Targeting cellular entry, cell survival, and pathogenicity by dynein light chain 1/PIN in human cells” (Board of Regents, The University of Texas System, priority 2003, dated 2006).

How the values were obtained:
Type in all cases: cell-based, human
DLC1-ER interaction = assay: Coimmunoprecipitation of DLC1 with ER
Protocol: In vitro-translated ^35ER were incubated with GST-DLC1, and analyzed by SDS-PAGE and autoradiography. FIG. 13B: Identification of ER domains that interact with DLC1. GST-ER fusion proteins containing different deletion constructs were incubated with in vitro-translated 35S-DLC1 (aa 1-89), and binding was analyzed by GST pull-down assay. FIG. 13C: Mapping of the ER-binding region in DLC1. GST-fusions of various DLC1 deletion constructs were incubated with in vitro-translated ^35S-ER, and binding was analyzed by GST pull-down assay. […] Cell lysates from Ishikawa cells was immunoprecipitated (IP) with anti-ERá mAb and immunoblotted with anti-DLC1 or ER Abs. […] Cell lysates from MCF-7/TAM-sen or Ishikawa cells were treated with Tam (10^−9M) for 24 h, and IP with anti-ERá mAb and immunoblotted with anti-DLC1 or ER Abs. […] MCF-7/DLC1 cells were treated with or without Dox for 24 h and then treated with E2 (10^−9M) or Tam (10^−8M) for 24 h, and IP with anti-ERá mAb and immunoblotted with anti-DLC1 or ER Abs. FIG. 13G: Characterization of MCF-7 cells expressing T7-DLC1-Ser88A mutant under a tetracycline-inducible promoter. […] MCF-7/DLC1 and MCF-7/DLC1-Ser88A cells were treated with or without Dox for 24 h and cell lysates were IP with anti-ERá mAb and blotted with anti-DLC1, ERá and T7 Abs.
To this end, MCF-7 cells expressing a T7-DLC1 mutant in which Ser88 and amino acid 89 were deleted under a tet-inducible promoter (MCF-7/DLC1-1-87 mutant) were generated (FIG. 13G).

Pak1 = Pak1 kinase activity in cell lysates; settings: Ishikawa cells
Source text: FIGS. 20A–20L—Pak1 activation confers tamoxifen-resistance. FIG. 20A: Pak1 activation promoted ER-transactivation function.

ZR 75 cells = assay: Boyden chamber migration assay, NIH3T3 conditioned medium; settings: stable ZR75 clones
Protocol: FIGS. 4A–4E—Effect of DLC1/PIN expression on cell motility. FIG. 4A: expression of DLC1/PIN in a number of normal and breast cancer cells analyzed by western blot analysis. FIG. 4B: Expression of T7-DLC1/PIN in stable clones analyzed by western blot analysis. FIG. 4C: Effect DLC1/PIN expression on the motility. Migratory potential of DLC1/PIN wild type or DLC1/PIN^del88-89 mutant expressing clones was measured by Boyden chamber assay using NIH3T3 conditioned medium as chemoattractant. Migrated cells were recorded by microscopy. Representative data of three replicate experiments is shown. FIG. 4D: ZR75/RFP-DLC1 cells which stably expressing wild type red florescent-tagged DLC1/PIN protein (RFPDLC1/PIN) was incubated with FITC-dextran beads. After twenty minutes, cells were fixed with methanol and stained for endogenous Pak1 (blue), RFPDLC1/PIN (red) and FITC-dextran (green). An inset containing the cytoplasmic region was blown up to visualize the colocalization of Pak1 and DLC1/PIN on dextran beads. Merged images are presented in the upper right panel, and colocalization of Pak1 with DLC1/PIN can be visualized as white vesicles due to colocalization of pixels from Pak1 (blue), DLC1/PIN (red) and FITC dextran (green). FIG. 4E: ZR75/RFP-DLC1/PIN were transfected with a dominant negative mutant of Pak1 K299RLL (a myc-tagged kinase dead and GTPase binding defective construct of Pak1). […]

| Compound | DLC1-ER interaction (DLC1-ER interaction; Ishikawa cells, Tam 24 h) | DLC1-ER interaction (DLC1-ER interaction; MCF-7/DLC1 cells with doxycycline) | DLC1-ER interaction (DLC1-ER interaction; MCF-7/TAM-Sen cells, Tam 24 h) | Pak1 kinase activity (Pak1) | migratory potential (ZR 75 cells) | interaction with ER (DLC1-ER interaction; MCF-7 cells, tet-inducible T7-tagged mutant) |
| --- | --- | --- | --- | --- | --- | --- |
| CC/C(=C(\c1ccccc1)c1ccc(OCCN(C)C)cc1)c1ccccc1 [tamoxifen] | substantially enhanced | modestly, but reproducibly, increased | not | upregulated |  |  |
| DLC1/PIN^del 88-89: DLC1/PIN mutant in which Ser88 and amino acid 89 were deleted |  |  |  |  | abolished DLC1/PIN mediated increase in the migratory potential | failed to detect any interaction |
